ChEMBL document CHEMBL1201862, “PubChem BioAssay data set” (2004)
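Following 48 hours of exposure in 96-well plates, responses at five concentrations were used to interpolate endpoints linearly. GI50 = concentration required for 50% inhibition of growth.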 The source made the active and inactive calls. No stated cut-off is given here; in the data, active = GI50 up to about 1.1 µM and inactive = higher.

Tests used:
Experiment in all cases: inhibition of tumour cell growth, NCI panel, 48 h
[1] = test system: SK-MEL-28
[2] = test system: CAKI-1
[3] = test system: OVCAR-3
[4] = test system: SNB-75
[5] = test system: NCI-H522
[6] = test system: TK-10
[7] = test system: OVCAR-5
[8] = test system: HOP-62
[9] = test system: MOLT-4
[10] = test system: Malme-3M
[11] = test system: A549
[12] = test system: OVCAR-8
[13] = test system: 786-0
[14] = test system: CCRF-CEM
[15] = test system: M19-MEL
[16] = test system: LXFL 529
[17] = test system: SK-MEL-2
[18] = test system: KM-20L2
[19] = test system: SF-295
[20] = test system: SF-539
[21] = test system: U-251
[22] = test system: ACHN
[23] = test system: SF-268
[24] = test system: UACC-257
[25] = test system: DLD-1
[26] = test system: HCT-15
[27] = test system: HCC 2998
[28] = test system: KM12
[29] = test system: UACC-62
[30] = test system: OVCAR-4
[31] = test system: HT-29
[32] = test system: XF498
[33] = test system: SNB-19
[34] = test system: SW-620
[35] = test system: A498
[36] = test system: EKVX
[37] = test system: IGROV-1
[38] = test system: NCI-H23
[39] = test system: DMS-114
[40] = test system: NCI-H460
[41] = test system: HCT-116
[42] = test system: K562
[43] = test system: UO-31
[44] = test system: M14
[45] = test system: RPMI-8226
[46] = test system: COLO 205
[47] = test system: SN12C
[48] = test system: SK-MEL-5
[49] = test system: SK-OV-3
[50] = test system: PC-3
[51] = test system: MDA-MB-435
[52] = test system: LOX IMVI
[53] = test system: SNB-78
[54] = test system: NCI-H226
[55] = test system: Hs-578T
[56] = test system: SR
[57] = test system: DU-145
[58] = test system: NCI/ADR-RES
[59] = test system: T47D
[60] = test system: HOP-18
[61] = test system: RXF 393
[62] = test system: BT-549
[63] = test system: HOP-92
[64] = test system: MDA-MB-231
[65] = test system: DMS-273
[66] = test system: HL-60
[67] = test system: MDA-N
[68] = test system: MCF7

In the case of `CCOc1cc2c(cnc3c4cc(OC)c(OC)cc4ccc23)cc1OC`, the GI50 [1] is reported as > 100 µM (inactive), the GI50 [2] is reported as > 100 µM (inactive) and the GI50 [3] is reported as > 100 µM (inactive). The GI50 [4] was > 100 µM (inactive), the GI50 [5] was > 100 µM (inactive) and the GI50 [6] was > 100 µM (inactive). For the same compound, the GI50 [7] was > 100 µM (inactive), the GI50 [8] was > 100 µM (inactive) and the GI50 [9] was > 100 µM (inactive). For the same compound, the GI50 [10] was > 100 µM (inactive), the GI50 [11] was > 100 µM (inactive) and the GI50 [12] was > 100 µM (inactive). The GI50 [13] was > 100 µM (inactive), the GI50 [14] was > 100 µM (inactive) and the GI50 [15] was > 100 µM (inactive). For the same compound, the GI50 [16] was > 100 µM (inactive), the GI50 [17] was > 100 µM (inactive) and the GI50 [18] was > 100 µM (inactive). For the same compound, the GI50 [19] was > 100 µM (inactive), the GI50 [20] was > 100 µM (inactive) and the GI50 [21] was > 100 µM (inactive). The GI50 [22] was > 100 µM (inactive), the GI50 [23] was > 100 µM (inactive) and the GI50 [24] was > 100 µM (inactive). For the same compound, the GI50 [25] was > 100 µM (inactive), the GI50 [26] was greater than 100 µM and the GI50 [27] was > 100 µM (inactive). The GI50 [28] was > 100 µM (inactive), the GI50 [29] was > 100 µM (inactive) and the GI50 [30] was > 100 µM (inactive). For the same compound, the GI50 [31] was > 100 µM (inactive), the GI50 [32] was > 100 µM (inactive) and the GI50 [33] was > 100 µM (inactive). For the same compound, the GI50 [34] was > 100 µM (inactive), the GI50 [35] was > 100 µM (inactive) and the GI50 [36] was > 100 µM (inactive). The GI50 [37] was > 100 µM (inactive), the GI50 [38] was > 100 µM (inactive) and the GI50 [39] was > 100 µM (inactive). The GI50 [40] was > 100 µM (inactive), the GI50 [41] was > 100 µM (inactive) and the GI50 [42] was > 100 µM (inactive). The GI50 [43] was > 100 µM (inactive), the GI50 [44] was > 100 µM (inactive) and the GI50 [45] was > 100 µM (inactive). The GI50 [46] was > 100 µM (inactive), the GI50 [47] was > 100 µM (inactive) and the GI50 [48] was > 100 µM (inactive). The GI50 [49] was > 100 µM (inactive).

With `C=C(c1ccccc1)[C@@]1(O)CC[C@@H]1N(CC#N)Cc1ccccc1` the GI50 [1] was 17.2 µM (inactive), the GI50 [2] was 18.9 µM (inactive) and the GI50 [50] was 22.9 µM (inactive). The GI50 [3] was 12.3 µM (inactive), the GI50 [51] was 22.5 µM (inactive) and the GI50 [4] was 33.9 µM (inactive). The GI50 [5] was 20.6 µM (inactive), the GI50 [6] was 20.8 µM (inactive) and the GI50 [52] was 19.1 µM (inactive). For the same compound, the GI50 [7] was 53.6 µM (inactive), the GI50 [8] was 97.3 µM (inactive) and the GI50 [9] was 26.3 µM (inactive). The GI50 [10] was 3.23 µM (inactive), the GI50 [53] was 31.2 µM (inactive) and the GI50 [11] was 32.9 µM (inactive). For the same compound, the GI50 [54] was 35.2 µM (inactive), the GI50 [12] was 33.4 µM (inactive) and the GI50 [13] was 18.4 µM (inactive). For the same compound, the GI50 [14] was 32 µM (inactive), the GI50 [55] was 20.7 µM (inactive) and the GI50 [56] was 37.2 µM (inactive). For the same compound, the GI50 [15] was 28.3 µM (inactive), the GI50 [16] was 15.9 µM (inactive) and the GI50 [17] was 20.9 µM (inactive). The GI50 [18] was 63.1 µM (inactive), the GI50 [19] was 58.1 µM (inactive) and the GI50 [20] was 29.2 µM (inactive). The GI50 [21] was 53.3 µM (inactive), the GI50 [22] was 20.8 µM (inactive) and the GI50 [23] was 33.5 µM (inactive). The GI50 [24] was 17.8 µM (inactive), the GI50 [25] was 19.6 µM (inactive) and the GI50 [26] was 18.7 µM. For the same compound, the GI50 [27] was 21.2 µM (inactive), the GI50 [28] was 28.6 µM (inactive) and the GI50 [57] was 80.7 µM (inactive). The GI50 [58] was 19.7 µM (inactive), the GI50 [29] was 17.9 µM (inactive) and the GI50 [59] was 16.3 µM (inactive). For the same compound, the GI50 [30] was 15.3 µM (inactive), the GI50 [60] was 14.6 µM (inactive) and the GI50 [61] was 17.7 µM (inactive). The GI50 [31] was 19.8 µM (inactive), the GI50 [33] was 36.6 µM (inactive) and the GI50 [62] was 19.9 µM (inactive). The GI50 [63] was 18.7 µM (inactive), the GI50 [64] was 14 µM (inactive) and the GI50 [34] was 18.2 µM (inactive). The GI50 [35] was 13.6 µM (inactive), the GI50 [36] was 37.7 µM (inactive) and the GI50 [37] was 36.1 µM (inactive). The GI50 [38] was 23.1 µM (inactive), the GI50 [39] was 17 µM (inactive) and the GI50 [65] was 20.5 µM (inactive). For the same compound, the GI50 [40] was 44.3 µM (inactive), the GI50 [41] was 16.6 µM (inactive) and the GI50 [66] was 32 µM (inactive). The GI50 [42] was 42.1 µM (inactive), the GI50 [43] was 26.7 µM (inactive) and the GI50 [44] was 17.3 µM (inactive). For the same compound, the GI50 [67] was 22.3 µM (inactive), the GI50 [45] was 20 µM (inactive) and the GI50 [46] was 16.3 µM (inactive). For the same compound, the GI50 [47] was 20.1 µM (inactive), the GI50 [48] was 15.9 µM (inactive) and the GI50 [49] was 98.9 µM (inactive).

With `Cc1ccc2c(c1)CN(C(=O)CCC(=O)OCc1ccccc1)c1ccc(C)cc1CN2C(=O)CCC(=O)OCc1ccccc1` the GI50 [1] was > 100 µM (inactive), the GI50 [2] was > 100 µM (inactive) and the GI50 [50] was > 100 µM (inactive). The GI50 [3] was > 100 µM (inactive), the GI50 [51] was > 100 µM (inactive) and the GI50 [4] was 26.6 µM (inactive). The GI50 [5] was > 100 µM (inactive), the GI50 [6] was > 100 µM (inactive) and the GI50 [52] was > 100 µM (inactive). The GI50 [7] was > 100 µM (inactive), the GI50 [8] was > 78 µM (inactive) and the GI50 [9] was > 100 µM (inactive). For the same compound, the GI50 [10] was > 100 µM (inactive), the GI50 [53] was > 100 µM (inactive) and the GI50 [11] was > 100 µM (inactive). The GI50 [54] was > 100 µM (inactive), the GI50 [12] was > 100 µM (inactive) and the GI50 [13] was > 90.8 µM (inactive). For the same compound, the GI50 [14] was > 100 µM (inactive), the GI50 [55] was 40 µM (inactive) and the GI50 [56] was > 100 µM (inactive). The GI50 [15] was > 100 µM (inactive), the GI50 [16] was > 100 µM (inactive) and the GI50 [17] was > 100 µM (inactive). For the same compound, the GI50 [18] was > 100 µM (inactive), the GI50 [19] was 98.6 µM (inactive) and the GI50 [20] was 88.3 µM (inactive). The GI50 [21] was > 100 µM (inactive), the GI50 [22] was > 100 µM (inactive) and the GI50 [23] was > 100 µM (inactive). The GI50 [24] was > 100 µM (inactive), the GI50 [25] was > 100 µM (inactive) and the GI50 [26] was greater than 100 µM. For the same compound, the GI50 [27] was > 100 µM (inactive), the GI50 [28] was 99.3 µM (inactive) and the GI50 [57] was > 100 µM (inactive). The GI50 [58] was > 100 µM (inactive), the GI50 [29] was > 100 µM (inactive) and the GI50 [59] was > 100 µM (inactive). The GI50 [30] was > 100 µM (inactive), the GI50 [60] was > 100 µM (inactive) and the GI50 [61] was > 100 µM (inactive). For the same compound, the GI50 [31] was > 100 µM (inactive), the GI50 [33] was > 100 µM (inactive) and the GI50 [62] was > 100 µM (inactive). The GI50 [63] was 82.2 µM (inactive), the GI50 [64] was > 100 µM (inactive) and the GI50 [34] was > 100 µM (inactive). The GI50 [35] was > 100 µM (inactive), the GI50 [68] was 9.25 µM (inactive) and the GI50 [36] was > 100 µM (inactive). For the same compound, the GI50 [37] was > 100 µM (inactive), the GI50 [38] was > 100 µM (inactive) and the GI50 [39] was > 100 µM (inactive). The GI50 [65] was > 100 µM (inactive), the GI50 [40] was > 100 µM (inactive) and the GI50 [41] was > 100 µM (inactive). The GI50 [66] was > 100 µM (inactive), the GI50 [42] was > 100 µM (inactive) and the GI50 [44] was > 100 µM (inactive). For the same compound, the GI50 [67] was > 100 µM (inactive), the GI50 [45] was > 100 µM (inactive) and the GI50 [46] was > 100 µM (inactive). The GI50 [47] was > 100 µM (inactive), the GI50 [48] was > 100 µM (inactive) and the GI50 [49] was > 100 µM (inactive).
